Results: PubChem BioAssay (NCI)
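Interpolation was linear, between the two tested concentrations surrounding the appropriate level; five concentrations were tested over 48 hours in 96-well plates. TGI: concentration producing complete growth inhibition.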

Experiments:
Assay in all cases: NCI tumour cell line growth inhibition, 48 h
ACHN renal = test system: ACHN renal
M14 melanoma = test system: M14 melanoma
LOX IMVI melanoma = test system: LOX IMVI melanoma
M19-MEL melanoma = test system: M19-MEL melanoma
SF-295 CNS = test system: SF-295 CNS
KM20L2 colon = test system: KM20L2 colon
SF-539 CNS = test system: SF-539 CNS
SK-MEL-5 melanoma = test system: SK-MEL-5 melanoma
786-0 renal = test system: 786-0 renal
SR leukemia = test system: SR leukemia
KM12 colon = test system: KM12 colon
HCT-15 colon = test system: HCT-15 colon
UACC-257 melanoma = test system: UACC-257 melanoma
MOLT-4 leukemia = test system: MOLT-4 leukemia
SN12C renal = test system: SN12C renal
SK-MEL-28 melanoma = test system: SK-MEL-28 melanoma
HL-60(TB) leukemia = test system: HL-60(TB) leukemia
TK-10 renal = test system: TK-10 renal
NCI-H23 lung = test system: NCI-H23 lung
OVCAR-3 ovarian = test system: OVCAR-3 ovarian
OVCAR-8 ovarian = test system: OVCAR-8 ovarian
SNB-19 CNS = test system: SNB-19 CNS
HCT-116 colon = test system: HCT-116 colon
HOP-18 NSCLC = test system: HOP-18 NSCLC
DMS 114 small cell lung = test system: DMS 114 small cell lung
A549 NSCLC = test system: A549 NSCLC
LXFL 529 NSCLC = test system: LXFL 529 NSCLC
UO-31 renal = test system: UO-31 renal
CAKI-1 renal = test system: CAKI-1 renal
CCRF-CEM leukemia = test system: CCRF-CEM leukemia
RPMI-8226 leukemia = test system: RPMI-8226 leukemia
SF-268 CNS = test system: SF-268 CNS
DMS 273 small cell lung = test system: DMS 273 small cell lung
RXF-631 renal = test system: RXF-631 renal
SW-620 colon = test system: SW-620 colon
OVCAR-5 ovarian = test system: OVCAR-5 ovarian
COLO 205 colon = test system: COLO 205 colon
OVCAR-4 ovarian = test system: OVCAR-4 ovarian
EKVX NSCLC = test system: EKVX NSCLC
IGROV1 ovarian = test system: IGROV1 ovarian
DLD-1 colon = test system: DLD-1 colon
MALME-3M melanoma = test system: MALME-3M melanoma
A498 renal = test system: A498 renal
SK-OV-3 ovarian = test system: SK-OV-3 ovarian
SK-MEL-2 melanoma = test system: SK-MEL-2 melanoma
NCI-H226 lung = test system: NCI-H226 lung
HT29 colon = test system: HT29 colon
SNB-78 CNS = test system: SNB-78 CNS
K-562 leukemia = test system: K-562 leukemia
RXF 393 renal = test system: RXF 393 renal
XF 498 CNS = test system: XF 498 CNS
U251 CNS = test system: U251 CNS
SNB-75 CNS = test system: SNB-75 CNS
UACC-62 melanoma = test system: UACC-62 melanoma
NCI-H460 lung = test system: NCI-H460 lung
HOP-92 NSCLC = test system: HOP-92 NSCLC
HCC-2998 colon = test system: HCC-2998 colon
HOP-62 NSCLC = test system: HOP-62 NSCLC
NCI-H522 lung = test system: NCI-H522 lung

Q: How did the TGI (ACHN renal) turn out when `COc1cc2c(OC)cc1CSCc1sc(C)c(c1Br)CSC2` was run?
A: The TGI was > 100 µM.

Q: And the TGI (M14 melanoma)?
A: The TGI was > 100 µM.

Q: And the TGI (LOX IMVI melanoma)?
A: Its TGI is > 100 µM.

Q: And the TGI (M19-MEL melanoma)?
A: Its TGI is > 100 µM.

Q: And the TGI (SF-295 CNS)?
A: Its TGI is > 100 µM.

Q: What about the TGI (KM20L2 colon) of the same molecule?
A: The TGI was > 100 µM.

Q: What about the TGI (SF-539 CNS) of the same molecule?
A: Its TGI is > 100 µM.

Q: What about the TGI (SK-MEL-5 melanoma) of the same molecule?
A: Its TGI is > 100 µM.

Q: What about the TGI (786-0 renal) of the same molecule?
A: The TGI was > 100 µM.

Q: And the TGI (SR leukemia)?
A: Its TGI is > 100 µM.

Q: What about the TGI (KM12 colon) of the same molecule?
A: The TGI was > 100 µM.

Q: And the TGI (HCT-15 colon)?
A: Its TGI is > 100 µM.

Q: And the TGI (UACC-257 melanoma)?
A: Its TGI is > 100 µM.

Q: And the TGI (MOLT-4 leukemia)?
A: The TGI was > 100 µM.

Q: And the TGI (SN12C renal)?
A: The TGI was > 100 µM.

Q: What about the TGI (SK-MEL-28 melanoma) of the same molecule?
A: The TGI was > 100 µM.

Q: What about the TGI (HL-60(TB) leukemia) of the same molecule?
A: Its TGI is > 100 µM.

Q: What about the TGI (TK-10 renal) of the same molecule?
A: Its TGI is > 100 µM.

Q: And the TGI (NCI-H23 lung)?
A: The TGI was > 100 µM.

Q: And the TGI (OVCAR-3 ovarian)?
A: The TGI was > 100 µM.

Q: What about the TGI (OVCAR-8 ovarian) of the same molecule?
A: The TGI was > 100 µM.

Q: What about the TGI (SNB-19 CNS) of the same molecule?
A: The TGI was > 100 µM.

Q: What about the TGI (HCT-116 colon) of the same molecule?
A: The TGI was > 100 µM.

Q: And the TGI (HOP-18 NSCLC)?
A: Its TGI is > 100 µM.

Q: What about the TGI (DMS 114 small cell lung) of the same molecule?
A: The TGI was > 100 µM.

Q: And the TGI (A549 NSCLC)?
A: The TGI was > 100 µM.

Q: What about the TGI (LXFL 529 NSCLC) of the same molecule?
A: The TGI was > 100 µM.

Q: And the TGI (UO-31 renal)?
A: Its TGI is > 100 µM.

Q: What about the TGI (CAKI-1 renal) of the same molecule?
A: Its TGI is > 100 µM.

Q: And the TGI (CCRF-CEM leukemia)?
A: Its TGI is > 100 µM.

Q: And the TGI (RPMI-8226 leukemia)?
A: The TGI was > 100 µM.

Q: And the TGI (SF-268 CNS)?
A: The TGI was > 100 µM.

Q: What about the TGI (DMS 273 small cell lung) of the same molecule?
A: The TGI was > 100 µM.

Q: And the TGI (RXF-631 renal)?
A: The TGI was > 100 µM.

Q: What about the TGI (SW-620 colon) of the same molecule?
A: Its TGI is > 100 µM.

Q: What about the TGI (OVCAR-5 ovarian) of the same molecule?
A: The TGI was > 100 µM.

Q: And the TGI (COLO 205 colon)?
A: The TGI was > 100 µM.

Q: And the TGI (OVCAR-4 ovarian)?
A: Its TGI is > 100 µM.

Q: What about the TGI (EKVX NSCLC) of the same molecule?
A: The TGI was > 100 µM.

Q: What about the TGI (IGROV1 ovarian) of the same molecule?
A: Its TGI is > 100 µM.

Q: What about the TGI (DLD-1 colon) of the same molecule?
A: Its TGI is > 100 µM.

Q: And the TGI (MALME-3M melanoma)?
A: The TGI was > 100 µM.

Q: And the TGI (A498 renal)?
A: The TGI was > 100 µM.

Q: And the TGI (SK-OV-3 ovarian)?
A: The TGI was > 100 µM.

Q: What about the TGI (SK-MEL-2 melanoma) of the same molecule?
A: The TGI was > 100 µM.

Q: What about the TGI (NCI-H226 lung) of the same molecule?
A: Its TGI is > 100 µM.

Q: What about the TGI (HT29 colon) of the same molecule?
A: Its TGI is > 100 µM.

Q: And the TGI (SNB-78 CNS)?
A: The TGI was > 100 µM.

Q: What about the TGI (K-562 leukemia) of the same molecule?
A: The TGI was > 100 µM.

Q: And the TGI (RXF 393 renal)?
A: Its TGI is > 100 µM.

Q: And the TGI (XF 498 CNS)?
A: Its TGI is > 100 µM.

Q: What about the TGI (U251 CNS) of the same molecule?
A: The TGI was > 100 µM.

Q: What about the TGI (SNB-75 CNS) of the same molecule?
A: Its TGI is > 100 µM.

Q: What about the TGI (UACC-62 melanoma) of the same molecule?
A: The TGI was > 100 µM.

Q: And the TGI (NCI-H460 lung)?
A: The TGI was > 100 µM.

Q: What about the TGI (HOP-92 NSCLC) of the same molecule?
A: The TGI was > 100 µM.

Q: And the TGI (HCC-2998 colon)?
A: The TGI was > 100 µM.

Q: What about the TGI (HOP-62 NSCLC) of the same molecule?
A: The TGI was > 100 µM.

Q: `COc1ccc(/C(Cl)=C(\C=O)c2ccc(OC)c(OC)c2)cc1` was tested. Which TGI (ACHN renal) did it give?
A: Its TGI is > 100 µM.

Q: What about the TGI (M14 melanoma) of the same molecule?
A: Its TGI is > 100 µM.

Q: And the TGI (LOX IMVI melanoma)?
A: The TGI was > 100 µM.

Q: And the TGI (M19-MEL melanoma)?
A: Its TGI is > 100 µM.

Q: What about the TGI (SF-295 CNS) of the same molecule?
A: Its TGI is > 100 µM.

Q: What about the TGI (KM20L2 colon) of the same molecule?
A: The TGI was > 100 µM.

Q: What about the TGI (SF-539 CNS) of the same molecule?
A: The TGI was 58.5 µM.

Q: And the TGI (SK-MEL-5 melanoma)?
A: The TGI was > 100 µM.

Q: What about the TGI (HCT-15 colon) of the same molecule?
A: Its TGI is > 100 µM.

Q: And the TGI (MOLT-4 leukemia)?
A: The TGI was > 100 µM.

Q: And the TGI (SN12C renal)?
A: Its TGI is > 100 µM.

Q: And the TGI (SK-MEL-28 melanoma)?
A: The TGI was > 100 µM.

Q: And the TGI (HL-60(TB) leukemia)?
A: Its TGI is > 100 µM.

Q: What about the TGI (TK-10 renal) of the same molecule?
A: Its TGI is > 100 µM.

Q: What about the TGI (NCI-H23 lung) of the same molecule?
A: Its TGI is > 100 µM.

Q: What about the TGI (OVCAR-3 ovarian) of the same molecule?
A: Its TGI is > 100 µM.

Q: And the TGI (OVCAR-8 ovarian)?
A: Its TGI is > 100 µM.

Q: And the TGI (SNB-19 CNS)?
A: Its TGI is > 100 µM.

Q: What about the TGI (HOP-18 NSCLC) of the same molecule?
A: Its TGI is > 100 µM.

Q: And the TGI (DMS 114 small cell lung)?
A: The TGI was > 100 µM.

Q: What about the TGI (LXFL 529 NSCLC) of the same molecule?
A: The TGI was > 100 µM.

Q: What about the TGI (UO-31 renal) of the same molecule?
A: Its TGI is > 100 µM.

Q: What about the TGI (CAKI-1 renal) of the same molecule?
A: The TGI was > 100 µM.

Q: And the TGI (CCRF-CEM leukemia)?
A: Its TGI is > 100 µM.

Q: What about the TGI (RPMI-8226 leukemia) of the same molecule?
A: Its TGI is > 100 µM.

Q: What about the TGI (SF-268 CNS) of the same molecule?
A: Its TGI is > 100 µM.

Q: And the TGI (RXF-631 renal)?
A: The TGI was > 100 µM.

Q: What about the TGI (SW-620 colon) of the same molecule?
A: Its TGI is > 100 µM.

Q: And the TGI (COLO 205 colon)?
A: The TGI was > 100 µM.

Q: And the TGI (EKVX NSCLC)?
A: The TGI was > 100 µM.

Q: And the TGI (IGROV1 ovarian)?
A: Its TGI is > 100 µM.

Q: What about the TGI (MALME-3M melanoma) of the same molecule?
A: Its TGI is > 100 µM.

Q: What about the TGI (A498 renal) of the same molecule?
A: The TGI was 98.8 µM.

Q: And the TGI (SK-OV-3 ovarian)?
A: Its TGI is > 100 µM.

Q: What about the TGI (SK-MEL-2 melanoma) of the same molecule?
A: The TGI was 76.6 µM.

Q: What about the TGI (NCI-H226 lung) of the same molecule?
A: The TGI was > 100 µM.

Q: What about the TGI (NCI-H522 lung) of the same molecule?
A: Its TGI is 85.3 µM.

Q: What about the TGI (HT29 colon) of the same molecule?
A: Its TGI is > 100 µM.

Q: And the TGI (SNB-78 CNS)?
A: Its TGI is > 100 µM.

Q: And the TGI (K-562 leukemia)?
A: The TGI was > 100 µM.

Q: And the TGI (XF 498 CNS)?
A: The TGI was 56.1 µM.

Q: What about the TGI (U251 CNS) of the same molecule?
A: The TGI was > 100 µM.

Q: What about the TGI (SNB-75 CNS) of the same molecule?
A: Its TGI is 58.7 µM.

Q: And the TGI (UACC-62 melanoma)?
A: Its TGI is > 100 µM.

Q: And the TGI (NCI-H460 lung)?
A: Its TGI is > 100 µM.

Q: And the TGI (HOP-92 NSCLC)?
A: Its TGI is 53.4 µM.
